What was measured:
NLM-NmMetQ [1] = target: T1, NLM-NmMetQ (Neisseria meningitidis, UniProt Q7DD63); experiment: […] NMR FAXS competition; format: binding; details: 43 uM protein, 43 uM analog, 2 mM trifluoromethyl methionine reporter, T2 120 ms, 300 K; competitive
T1 construct: gene NMB1946; made as in Nguyen et al. 2019; E. coli BL21(DE3) Gold
T1 sequence (Q7DD63 22-287): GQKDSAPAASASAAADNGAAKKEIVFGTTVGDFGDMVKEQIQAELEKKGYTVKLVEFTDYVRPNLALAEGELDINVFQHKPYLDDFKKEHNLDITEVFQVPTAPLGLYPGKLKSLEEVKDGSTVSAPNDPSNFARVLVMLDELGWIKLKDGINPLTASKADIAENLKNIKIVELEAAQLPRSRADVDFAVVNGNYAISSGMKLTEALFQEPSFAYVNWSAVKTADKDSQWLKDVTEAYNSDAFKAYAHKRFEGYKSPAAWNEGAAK

[2] = target: T2, lipo-NmMetQ:NmMetNI (methionine site) (Neisseria meningitidis, UniProt Q7DD63); experiment: EnzChek phosphate ATPase stimulation; format: biochemical; details: 2 mM ATP, NmMetNI:lipo-NmMetQ:analog 1:8:50 molar ratio, 5 mM MgCl2, pH 7.5, 37 C, 0.05% DDM
T2 construct: gene NMB1946; full-length MetQ, signal cleaved, triacylated at Cys20, C-terminal His10; MetNI with His10 on MetN; DDM-solubilized; E. coli; Methionine ABC transporter permease protein MetI
T2 sequence (Q7DD63 20-287): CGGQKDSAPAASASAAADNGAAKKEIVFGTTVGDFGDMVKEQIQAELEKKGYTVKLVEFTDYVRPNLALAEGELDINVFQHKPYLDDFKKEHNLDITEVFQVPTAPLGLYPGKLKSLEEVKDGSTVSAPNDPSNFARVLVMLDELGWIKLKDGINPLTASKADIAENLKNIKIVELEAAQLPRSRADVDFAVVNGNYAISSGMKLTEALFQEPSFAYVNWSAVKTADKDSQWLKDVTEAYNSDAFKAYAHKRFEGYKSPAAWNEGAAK
T2 sequence (Q9JXP2 1-245 partner): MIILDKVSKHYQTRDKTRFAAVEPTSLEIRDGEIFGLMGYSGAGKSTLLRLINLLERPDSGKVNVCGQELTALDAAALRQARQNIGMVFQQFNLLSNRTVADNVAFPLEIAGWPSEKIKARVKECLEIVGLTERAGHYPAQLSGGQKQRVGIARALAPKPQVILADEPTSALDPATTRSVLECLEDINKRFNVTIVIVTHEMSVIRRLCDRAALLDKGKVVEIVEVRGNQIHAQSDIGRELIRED
T2 sequence (Q9JXP3 1-228 partner): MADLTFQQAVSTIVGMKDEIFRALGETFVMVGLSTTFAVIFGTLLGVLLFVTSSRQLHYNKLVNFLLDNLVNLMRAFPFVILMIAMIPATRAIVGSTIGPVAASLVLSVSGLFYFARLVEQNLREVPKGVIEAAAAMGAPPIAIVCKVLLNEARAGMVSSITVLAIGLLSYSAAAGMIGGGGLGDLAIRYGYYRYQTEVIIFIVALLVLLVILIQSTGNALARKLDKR

NLM-NmMetQ [3] = target: T1, NLM-NmMetQ; experiment: […] NMR CPMG relaxation, direct reporter binding; details: 43 uM protein, 2 mM reporter, T2 120 ms, 300 K

SMILES	-ln(CPMG/1D) (NLM-NmMetQ [1])	EnzChek phosphate ATPase stimulation [2]	-ln(CPMG/1D) (NLM-NmMetQ [3])
C[Se]CC[C@H](N)C(=O)O [seleno-L-methionine]	seleno-L-methionine, L-methionine sulfoximine, and L-norleucine were well tolerated	–	–
CSCC[C@H](N)C(=O)O [L-methionine]	L-methionine completely displaced the reporter molecule	–	–
CSCC[C@H](NC(C)=O)C(=O)O [N-acetyl-L-methionine]	Addition of these analogs led to the respective complete or near complete displacement	–	–
CSCC[C@@H](N)C(=O)O [D-methionine]	D-methionine displaced less reporter than L-methionine	–	–
CSCC[C@H](NC=O)C(=O)O [N-formyl-L-methionine]	Addition of these analogs led to the respective complete or near complete displacement	methionine analogs led to substrate-stimulated ATPase activity: N-acetyl-L-methionine, N-formyl-L-methionine	–
CCOC(=O)[C@@H](N)CCSC [L-methionine ethyl ester]	L-methionine ethyl ester only partially displaced the reporter molecule	–	–
CCCC[C@H](N)C(=O)O [L-norleucine]	seleno-L-methionine, L-methionine sulfoximine, and L-norleucine were well tolerated	–	–
CCSCC[C@H](N)C(=O)O [L-ethionine]	addition of a methylene group (L-ethionine) was better tolerated	–	–
CS(=N)(=O)CC[C@H](N)C(=O)O (stereo partly drawn) [L-methionine sulfoximine]	seleno-L-methionine, L-methionine sulfoximine, and L-norleucine were well tolerated	–	–
N[C@@H](CCSC(F)(F)F)C(=O)O [Trifluoromethyl-methionine]	–	–	reporter molecule plus NLM-NmMetQ has a high -ln(CPMG/1D) ratio

Reference: publication PMC8416018, “Characterization of the ABC methionine transporter from Neisseria meningitidis reveals that lipidated MetQ is required for interaction” (eLife, 2021)
